Consider 3 compounds from US20060241130A1, “Anti-inflammatory compositions and uses thereof” (priority 2003, published 2006).

Series [1] can be described thus: Cromolyn sodium lyotropic mesophase formation (polarizing microscope). The class given is physicochemical. The following applies: phosphate buffered saline pH 7.4, 5 to 12 percent (w/w) tested. As to the method: Preparation of cromolyn sodium lyotropic mesophases: Solutions of cromolyn sodium (white powder, Vitamed Inc., Israel) were dissolved in phosphate buffered saline [50 mM phosphate, 100 mM NaCl (pH 7.4)] at eight different concentrations between 5 and 12 percent (w/w).

A short description of series [2]: Effect of ozone on cromolyn sodium mesophases. The class given is physicochemical. The following applies: 7-12 percent in PBS, ozone (10 percent in oxygen) bubbled for 5 minutes. As to the method: (§1) Analysis of the effect of ozone on cromolyn sodium mesophases: Six solutions of cromolyn sodium in PBS (7-12 percent) were placed in narrow (5 mm) NMR tubes and ozone (10 percent in oxygen) was bubbled for 5 minutes through the solutions using a flexible Teflon tube. […] Control experiments were carried out with hydrogen peroxide (30 percent) and sodium hypochlorite.

A short description of series [3]: Control: effect of hydrogen peroxide on cromolyn sodium mesophases. The series is classed as physicochemical. The note with it: hydrogen peroxide (30 percent), 8 hours at room temperature. As to the method: as §1
The nature of series [4]: Control: effect of sodium hypochlorite on cromolyn sodium mesophases. The series is classed as physicochemical. The note with it: any concentration of cromolyn sodium, 8 hours at room temperature. As to the method: as §1
Series [5] deals with ovalbumin sensitized Brown Norway rats. Put plainly: Asthma treatment model II: Penh (barometric plethysmography) after repeated OVA challenge. The series is classed as in vivo, rat. The following applies: 125 ppm in breathing atmosphere day 14 to day 21, measured day 21, 5 minutes after allergen challenge, mean ± standard error. As to the method: (§2) Asthma treatment model II: Asthma was induced on day 0 in three experimental groups of 10 animals each, by sensitization with ovalbumin (OVA) and aluminum hydroxide, as previously described (Du et al., 1992. Am. Rev. Resp. Dis. 146:1037-1041). Sensitization to the model antigen ovalbumin (OVA) was carried out by subcutaneous injection of 1 mg OVA (Sigma, St. Louis, Mo.) and 200 mg of aluminum hydroxide (AlumInject; Pierce Chemical, Rockford, Ill.) in 0.9 percent (w/w) saline in a total volume of 1 ml, and intraperitoneal injection of 1 ml saline containing 6 billion heat killed Bordetella pertussis cells (Pasteur Marieux, France). A fourth group of 10 animals was not sensitized and was used as the naive control group. The three groups of sensitized rats as well as the group of naive animals were challenged every other day from day 14 until day 21 with repeated 10 minute long inhalations of OVA using an ultrasonic nebulizer inhaler (LS 230 Systam Villeneuve Sur Lot, France). Throughout the experiments, the rats were kept unrestrained in a 20 liters box.

The test system is the same in series [6]. As to the kind of experiment: Asthma treatment model II: blinded histopathological scoring of lung sections (H&E). The series is classed as in vivo, rat. As to the method:
as §2
In model II, all rats were anaesthetized on day 21 with pentothal and sacrificed by bleeding from the abdominal aorta. Lungs were removed and inflated with 4 percent buffered formaldehyde overlayed with 20 cm water. The lungs were sliced longitudinally and embedded in paraffin. Histologic sections 5 microns thick were cut and stained with hematoxylin and eosin. The morphological changes were evaluated by light microscopy by a pathologist who was blinded to the treatment groups. The intensity of the peribronchiolar and perivascular cellular infiltration was assessed semi-quantitatively on a 0-3 scale as follows: 0=no or practically no inflammatory cells; I=a narrow rim of inflammatory cells surrounding most of the bronchioles/blood vessels, best visualized under high power; 2=a rim of inflammatory cells 3-4 cells thick, surrounding most of the bronchioles/blood vessels; 3=a prominent rim of inflammatory cells, 5 or more cells thick, surrounding most of the bronchioles/blood vessels. Bronchiolar constriction was also assessed on a semi-quantitative scale ranging over 0-3 grades (0=none; 1=mild; 2=moderate; 3=marked). The histologic sections included bronchioles (defined as airways lined by mucosa and lacking cartilage) and distal airways (alveolar ducts and sacs). The features examined included peribronchiolar and perivascular inflammation, morphological evidence of bronchoconstriction (papillary infolding of the bronchiolar mucosa) and granulomatous response in the pulmonary parenchyma.

The subject of series [7] is asthmatic human patients. Put plainly: Double-blind cross-over study in asthmatic children, adenosine bronchial provocation test. The series is classed as in vivo. The following applies: about 80 ppm nightly for two weeks.
From the text: Patients: Eleven patients were recruited from children to the pediatric pulmonary clinic, Rambam Medical Center, Haifa. Inclusion criteria: age: 6-11 years; diagnosis of asthma by ATS criteria; ability to perform spirometry consistently; asthma severity classified as “mild persistent” as per the GINA workshop report; no anti-inflammatory medication, including antihistamines, taken for at least 2 weeks prior to enrollment. Exclusion criteria: presence of other chronic conditions; emergency room visit in the past 3 months; respiratory infection in the past month; steroids or other anti-inflammatory medication taken within 2 weeks prior to treatment; and bronchodilators, theophylline preparations or monteleukast taken in the 24 hours prior to spirometry.
Study design: A double-blind cross-over study format was used to evaluate the effect of monoterpenes on asthma. The study included four phases, each lasting two weeks. Following enrollment, baseline spirometry was performed and inclusion/exclusion was verified. The patients then filled in a diary card for two weeks. […]
Adenosine bronchial provocation test (BPT): Bronchial provocation tests were performed by inhalation of nebulized adenosine 5′-monophosphate (adenosine; Sigma chemical company, St. Louis, Mo., USA) solutions in doubling doses. […] The best of three efforts were recorded. […]
Where [8] appears, read: 0-3 scale, 125 ppm inhalation day 14-21, OVA sensitized, OVA challenged rats.
Setting [9] is: H&E, representative treated rat.

The structures appear in SMILES notation.

Regarding `O=C(O)c1cc(=O)c2c(OCC(O)COc3cccc4oc(C(=O)O)cc(=O)c34)cccc2o1` [cromolyn sodium], in series [1], the “minimal concentration that exhibited birefringence” value is on record as 6%. For the same compound, in series [2], the birefringence after ozone result was “Loss of birefringence in all tubes” and the “conversion to oxidized products (1H-NMR)” value was “complete conversion”. Besides, in series [3], the “birefringence after hydrogen peroxide, 7 and 8 percent cromolyn sodium” value is recorded as “loss of birefringence was observed”; the “birefringence after hydrogen peroxide, more concentrated cromolyn sodium” value was “No effect”. Besides, in series [4], the birefringence after hypochlorite result was “No effect”.

Consider `CC12CCC(CC1)C(C)(C)O2` [eucalyptol], for which, in series [5], the Penh values was found to be 2.25±0.12. In addition, the “morphological evidence of bronchoconstriction score” value in series [6] (0-3 grades, 125 ppm inhalation day 14-21, OVA sensitized, OVA challenged rats) is 2.3±0.21. Besides, in series [6] (setting [8]), the “peribronchial inflammatory cell infiltration score” value amounted to 2.2±0.29 and the “perivascular inflammatory cell infiltration score” value is listed as 2.5±0.27. Besides, the “granulomas (granulomatous response) score” value in series [6] (125 ppm inhalation day 14-21, OVA sensitized, OVA challenged rats) amounted to 1.8±0.42. Also, in series [6] (setting [9]), the “morphologic bronchoconstriction in representative lung section (FIG. 12)” value is given as “shows morphologic evidence of bronchoconstriction”; the “peribronchiolar inflammation in representative lung section (FIG. 12)” value is “peribronchiolar inflammation and a lymphoid follicle”.

Regarding `C=C(C)[C@H]1CC=C(C)CC1` [limonene, d-limonene], in series [7] (adenosine challenge), the “improvement in severely asthmatic patients as compared to moderately asthmatic patients” value is “approximately one order of magnitude improvement”. Besides, in series [7] (children 6-11 years, compared to cineole negative control), the “asthmatics with asthmatic stress significantly and specifically relieved (adenosine challenge)” value is reported as 6/11.
